For eleven molecules, EC50 and fold induction results are on record in patent US20250171457A1, “NITROGEN-CONTAINING HETEROCYCLIC COMPOUND HAVING NRF2 ACTIVATION EFFECT” (CHUGAI SEIYAKU KABUSHIKI KAISHA, priority 2022, published 2025).

Molecules are shown by their SMILES. Like-named read-outs stand apart in the source and are kept apart here.

Assay [1] deals with Nrf2 transcriptional activity (pARE-Luc reporter) in HepG2 cells. The assay is described as follows: In vitro Nrf2 transcriptional activity measurement by ARE-dependent reporter assay in HepG2 cell. The conditions noted are these: HepG2 cells transfected with pARE-Luc, 4 hours at 37° C., luciferase activity of Example 1-54 or Example 17-23 at 3.75 μM defined as 100%. The class given is cell-based, human. A digest of the protocol: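 HepG2 cells transfected with pGL4.37 (pARE-Luc), replated onto compound and incubated 4 h at 37° C; luciferase read by Bright-Glo luminescence. Response normalized to 100% set by a reference compound at 3.75 μM; EC50 from dose-response curve.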
On the technique in general: In a reporter assay the amount or activity of a reporter protein is the signal.

The test system of assay [2] is Nqo1 (NAD(P)H quinone dehydrogenase 1) mRNA, Nrf2 downstream molecule. Kind of assay: In vivo Nrf2 transcriptional activity measurement (Nqo1 mRNA in organs by qPCR). The conditions noted are these: Mus musculus, C57BL/6J mice, 7 to 8 hours. The procedure: Test Example 2: In Vivo Nrf2 Transcriptional Activity Measurement
A test compound (solvent: 10 vol % dimethyl sulfoxide/50 mM glycine/32 mM sodium hydroxide/physiological saline) was administered to C57BL/6J mice (7-8 weeks old), which were euthanized by whole blood collection under isoflurane anesthesia 7 to 8 hours later, followed by the collection of various organs. mRNA was purified from the collected organs, and the mRNA expression level of Mapk1 as an internal control and the mRNA expression level of Nqo1 (NAD(P)H quinone dehydrogenase 1) as a typical Nrf2 downstream molecule were each measured by qPCR. The Nqo1 mRNA expression level was quantified by comparative CT, and an expression level ratio to a non-administration group was calculated. The administration of the test compound elevated the Nqo1 mRNA expression level in the various organs, confirming that the test compound also has a Nrf2-activating effect in vivo.

Where [3] appears, read: ip, Intraperitoneal, kidney, read-out: Nqo1 mRNA expression level ratio to non-administration group, Kidney.
The mark [4] stands for this setting: ip, Intraperitoneal, liver, read-out: Nqo1 mRNA expression level ratio to non-administration group, Liver.
The mark [5] stands for this setting: ip, Intraperitoneal, lung, read-out: Nqo1 mRNA expression level ratio to non-administration group, Lung.
[6] abbreviates: Oral, kidney, read-out: Nqo1 mRNA expression level ratio to non-administration group, Kidney.
Where [7] appears, read: Oral, liver, read-out: Nqo1 mRNA expression level ratio to non-administration group, Liver.
[8] abbreviates: Oral, lung, read-out: Nqo1 mRNA expression level ratio to non-administration group, Lung.

Broadly, the EC50 is the concentration that produces a half-maximal response. A lower EC50 goes with an effect from little substance. `COC1CC2(C1)CN(c1ccc(C(=O)N3COc4c(cccc4-c4cc(N5C6CCC5COC6)c(C(=O)O)cc4F)C3)c(Cl)c1)C2` [Compound 1-88, 4-[3-[2-Chloro-4-(6-methoxy-2-azaspiro[3.3]heptan-2-yl)benzoyl]-2,4-dihydro-1,3-benzoxazin-8-yl]-5-fluoro-2-(3-oxa-8-azabicyclo[3.2.1]octan-8-yl)benzoic acid] displayed a concentration giving a half-maximal response (EC50) in assay [1] (Homo sapiens) of 2.1 nM. Besides, the fold induction at 15 mg/kg in assay [2] (setting [3]) stood at 3; in assay [2] (setting [4]), 4.3; in assay [2] (setting [5]), 6.1; in assay [2] (setting [6]) it was 3.4; in assay [2] (setting [7]), 5.4; in assay [2] (setting [8]), 8.9.
On to `COc1ccc(-c2cc(Cl)c(C(=O)N3COc4c(cccc4-c4cc(N5C6CCC5COC6)c(C(=O)O)cc4F)C3)c(Cl)c2)cn1` [Compound 2-2, 4-[3-[2,6-Dichloro-4-(6-methoxypyridin-3-yl)benzoyl]-2,4-dihydro-1,3-benzoxazin-8-yl]-5-fluoro-2-(3-oxa-8-azabicyclo[3.2.1]octan-8-yl)benzoic acid], for which the response in assay [1] (Homo sapiens) was half-maximal at 6.5 nM (EC50). Further, the fold induction at 10 mg/kg amounted to 5.3 in assay [2] (setting [3]), 5.8 in assay [2] (setting [4]) and 17 in assay [2] (setting [5]).
On the same counts, the results for `CCN1CCN(c2cc(Cl)c(C(=O)N3COc4c(cccc4-c4cc(N5C6CCC5COC6)c(C(=O)O)cc4F)C3)c(Cl)c2)CC1` [Compound 4-8, 4-[3-[2,6-Dichloro-4-(4-ethylpiperazin-1-yl)benzoyl]-2,4-dihydro-1,3-benzoxazin-8-yl]-5-fluoro-2-(3-oxa-8-azabicyclo[3.2.1]octan-8-yl)benzoic acid] are 5.8 nM, 3.4, 6.7 and 6.2.
On the same counts, the results for `COCCOc1cc(Cl)c(C(=O)N2COc3c(cccc3-c3cc(N4C5CCC4COC5)c(C(=O)O)cc3F)C2)c(Cl)c1` [Compound 4-37, 4-[3-[2,6-Dichloro-4-(2-methoxyethoxy)benzoyl]-2,4-dihydro-1,3-benzoxazin-8-yl]-5-fluoro-2-(3-oxa-8-azabicyclo[3.2.1]octan-8-yl)benzoic acid] are 6.3 nM, 4, 8 and 5.4.
Molecule `COC1(OC)CN(c2cc(Cl)c(C(=O)N3COc4c(cccc4-c4cc(N5C6CCC5COC6)c(C(=O)O)cc4F)C3)c(Cl)c2)C1` [Compound 5-1, 4-[3-[2,6-Dichloro-4-(3,3-dimethoxyazetidin-1-yl)benzoyl]-2,4-dihydro-1,3-benzoxazin-8-yl]-5-fluoro-2-(3-oxa-8-azabicyclo[3.2.1]octan-8-yl)benzoic acid] showed an EC50 in assay [1] (Homo sapiens) of 1.6 nM. Further, the fold induction at 10 mg/kg in assay [2] (setting [3]) worked out at 4.4; in assay [2] (setting [4]), 6.8; in assay [2] (setting [5]), 19. Also, the fold induction at 30 mg/kg in assay [2] (setting [6]) was found to be 5.1; in assay [2] (setting [7]) it was 3.9; in assay [2] (setting [8]), 17.
In assay [1] (Homo sapiens), `O=C(O)c1cc(F)c(-c2cccc3c2OCN(C(=O)c2c(Cl)cc(N4CC5(C4)OCCCO5)cc2Cl)C3)cc1N1C2CCC1COC2` [Compound 5-2, 4-[3-[2,6-Dichloro-4-(5,9-dioxa-2-azaspiro[3.5]nonan-2-yl)benzoyl]-2,4-dihydro-1,3-benzoxazin-8-yl]-5-fluoro-2-(3-oxa-8-azabicyclo[3.2.1]octan-8-yl)benzoic acid] registered an EC50 of 1.3 nM. Also, the fold induction at 10 mg/kg in assay [2] (setting [3]) is 4.3; in assay [2] (setting [4]), 6.9; in assay [2] (setting [5]), 20. The fold induction at 30 mg/kg came to 4 in assay [2] (setting [6]), 6.9 in assay [2] (setting [7]) and 20 in assay [2] (setting [8]).
As to `CC1COC2(CN(c3cc(Cl)c(C(=O)N4COc5c(cccc5-c5cc(N6C7CCC6COC7)c(C(=O)O)cc5F)C4)c(Cl)c3)C2)OC1` [Compound 5-7, 4-[3-[2,6-Dichloro-4-(7-methyl-5,9-dioxa-2-azaspiro[3.5]nonan-2-yl)benzoyl]-2,4-dihydro-1,3-benzoxazin-8-yl]-5-fluoro-2-(3-oxa-8-azabicyclo[3.2.1]octan-8-yl)benzoic acid], in assay [1] (Homo sapiens), the midpoint of the response, the EC50, lay at 1.7 nM. Besides, the fold induction at 10 mg/kg in assay [2] (setting [3]) was 4; in assay [2] (setting [4]), 5.4; in assay [2] (setting [5]), 18.
For `CC1(C)COC2(CN(c3cc(Cl)c(C(=O)N4COc5c(cccc5-c5cc(N6C7CCC6COC7)c(C(=O)O)cc5F)C4)c(Cl)c3)C2)OC1` [Compound 5-9, 4-[3-[2,6-Dichloro-4-(7,7-dimethyl-5,9-dioxa-2-azaspiro[3.5]nonan-2-yl)benzoyl]-2,4-dihydro-1,3-benzoxazin-8-yl]-5-fluoro-2-(3-oxa-8-azabicyclo[3.2.1]octan-8-yl)benzoic acid], the EC50 in assay [1] (second printing of Table 20-1) came out at 1.7 nM. For the same molecule, the fold induction at 15 mg/kg in assay [2] (setting [3]) worked out at 3.7; in assay [2] (setting [4]), 6.7; in assay [2] (setting [5]), 15. Besides, the fold induction at 30 mg/kg in assay [2] (setting [6]) worked out at 5.2; in assay [2] (setting [7]) it was 6; in assay [2] (setting [8]), 19.
The molecule `O=C(O)c1cc(F)c(-c2cccc3c2OCN(C(=O)c2c(Cl)cc(N4CC5(C4)CC4(C5)OCCCO4)cc2Cl)C3)cc1N1C2CCC1COC2` [Compound 5-10, 4-[3-[2,6-Dichloro-4-(7,11-dioxa-2-azadispiro[3.1.56.14]dodecan-2-yl)benzoyl]-2,4-dihydro-1,3-benzoxazin-8-yl]-5-fluoro-2-(3-oxa-8-azabicyclo[3.2.1]octan-8-yl)benzoic acid] showed a concentration giving a half-maximal response (EC50) in assay [1] (Homo sapiens) of 3.2 nM. The fold induction at 15 mg/kg came out at 5.1 in assay [2] (setting [3]), 5.4 in assay [2] (setting [4]) and 17 in assay [2] (setting [5]).
`COC1(OC)CN(c2cc(Cl)c(C(=O)N3COc4c(cccc4-c4ccc(C(=O)O)c(N5C6CCC5COC6)c4)C3)c(Cl)c2)C1` [Compound 5-16, 4-[3-[2,6-Dichloro-4-(3,3-dimethoxyazetidin-1-yl)benzoyl]-2,4-dihydro-1,3-benzoxazin-8-yl]-2-(3-oxa-8-azabicyclo[3.2.1]octan-8-yl)benzoic acid]: in assay [1] (Homo sapiens), it took 3.5 nM to reach a half-maximal effect (EC50). Besides, the fold induction at 15 mg/kg stood at 3.6 in assay [2] (setting [6]), 4.8 in assay [2] (setting [7]) and 14 in assay [2] (setting [8]).
In the case of `O=C(O)c1cc(F)c(-c2cccc3c2OCN(C(=O)c2c(Cl)cc(N4CC5(CN(CC(F)F)C5)C4)cc2Cl)C3)cc1N1C2CCC1COC2` [Compound 7-2, 4-[3-[2,6-Dichloro-4-[6-(2,2-difluoroethyl)-2,6-diazaspiro[3.3]heptan-2-yl]benzoyl]-2,4-dihydro-1,3-benzoxazin-8-yl]-5-fluoro-2-(3-oxa-8-azabicyclo[3.2.1]octan-8-yl)benzoic acid], it took 4.6 nM to reach a half-maximal effect in assay [1] (Homo sapiens) (EC50). The fold induction at 15 mg/kg in assay [2] (setting [3]) turned out to be 4.3; in assay [2] (setting [4]) it was 6.2; in assay [2] (setting [5]) it was 11.
